Laboratory results taken from PubChem BioAssay AID2060893 (Molecular Pharmacology Branch, DTP, NCI, 2025).

Tested on: K86415-001-R-J1-PDC complex spheroids, viability
Test: Anticancer human tumor K86415-001-R-J1-PDC patient-derived lung adenocarcinoma cell line growth inhibition [RAS]
Details: for IC50: curve of first compound; for viability, T/C: stronger effect = lower value; active = viability on the fitted dose curve at most 10% of control; inactive = the rest
Method in brief: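 Multi-cell-type spheroids: tumor cells plus HUVEC endothelial cells and mesenchymal stem cells. RAS-pathway inhibitors were combined with targeted agents, each dosed in half-log steps down from clinical Cmax, or from 10 microM when Cmax was unknown.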

[1] = second compound 0.000949 µM, first compound 0.0316 µM
[2] = second compound 0.000949 µM, first compound 0.1 µM
[3] = second compound 0.000949 µM, first compound 0.316 µM
[4] = second compound 0.000949 µM, first compound 1 µM
[5] = second compound 0.000949 µM, first compound 3.16 µM
[6] = second compound 0.000949 µM, first compound 10 µM
[7] = second compound 0.003 µM, first compound 0.0316 µM
[8] = second compound 0.003 µM, first compound 0.1 µM
[9] = second compound 0.003 µM, first compound 0.316 µM
[10] = second compound 0.003 µM, first compound 1 µM
[11] = second compound 0.003 µM, first compound 3.16 µM
[12] = second compound 0.003 µM, first compound 10 µM
[13] = second compound 0.00949 µM, first compound 0.0316 µM
[14] = second compound 0.00949 µM, first compound 0.1 µM
[15] = second compound 0.00949 µM, first compound 0.316 µM
[16] = second compound 0.00949 µM, first compound 1 µM
[17] = second compound 0.00949 µM, first compound 3.16 µM
[18] = second compound 0.00949 µM, first compound 10 µM
[19] = second compound 0.03 µM, first compound 0.0316 µM
[20] = second compound 0.03 µM, first compound 0.1 µM
[21] = second compound 0.03 µM, first compound 0.316 µM
[22] = second compound 0.03 µM, first compound 1 µM
[23] = second compound 0.03 µM, first compound 3.16 µM
[24] = second compound 0.03 µM, first compound 10 µM
[25] = second compound 0.0949 µM, first compound 0.0316 µM
[26] = second compound 0.0949 µM, first compound 0.1 µM
[27] = second compound 0.0949 µM, first compound 0.316 µM
[28] = second compound 0.0949 µM, first compound 1 µM
[29] = second compound 0.0949 µM, first compound 3.16 µM
[30] = second compound 0.0949 µM, first compound 10 µM
[31] = second compound 0.3 µM, first compound 0.0316 µM
[32] = second compound 0.3 µM, first compound 0.1 µM
[33] = second compound 0.3 µM, first compound 0.316 µM
[34] = second compound 0.3 µM, first compound 1 µM
[35] = second compound 0.3 µM, first compound 3.16 µM
[36] = second compound 0.3 µM, first compound 10 µM
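Note: spheroids exposed to agents for seven days before readout.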

CC(=O)OC12COC1CC(O)C1(C)C(=O)C(O)C3=C(C)C(OC(=O)C(O)C(NC(=O)OC(C)(C)C)c4ccccc4)CC(O)(C(OC(=O)c4ccccc4)C21)C3(C)C (stereo not given) + CCn1c(-c2cc(N3CCN(C)CC3)cnc2C(C)OC)c2c3cc(ccc31)-c1csc(n1)CC(NC(=O)C1CC1C)C(=O)N1CCCC(N1)C(=O)OCC(C)(C)C2
active: viability, T/C [13] 9.53% | viability, T/C [14] 7.3% | viability, T/C [15] 7.91% | viability, T/C [16] 7.79% | viability, T/C [17] 5.97% | viability, T/C [18] 6.51% | viability, T/C [19] 5.56% | viability, T/C [20] 5.63% | viability, T/C [21] 4.4% | viability, T/C [22] 3.98% | viability, T/C [23] 2.48% | viability, T/C [24] 2.81% | viability, T/C [25] 3.04% | viability, T/C [26] 2.69% | viability, T/C [27] 2.48% | viability, T/C [28] 1.97% | viability, T/C [29] 2.21% | viability, T/C [30] 2.4% | viability, T/C [31] 2.05% | viability, T/C [32] 2.39% | viability, T/C [33] 1.97% | viability, T/C [34] 2.03% | viability, T/C [35] 2.06% | viability, T/C [36] 1.73%
inactive: viability, T/C [1] 26.9% | viability, T/C [2] 21.5% | viability, T/C [3] 17.2% | viability, T/C [4] 22.7% | viability, T/C [5] 25.3% | viability, T/C [6] 19% | viability, T/C [7] 19.2% | viability, T/C [8] 15.6% | viability, T/C [9] 15.1% | viability, T/C [10] 16.7% | viability, T/C [11] 15% | viability, T/C [12] 12.8%
< 0.0316 µM: IC50 (second compound 0.000949 µM) | IC50 (second compound 0.003 µM) | IC50 (second compound 0.00949 µM) | IC50 (second compound 0.03 µM) | IC50 (second compound 0.0949 µM) | IC50 (second compound 0.3 µM)

CCC(CC)c1cc(NC2CCC(N)C2)n2nccc2n1 (stereo not given) + CCn1c(-c2cc(N3CCN(C)CC3)cnc2C(C)OC)c2c3cc(ccc31)-c1csc(n1)CC(NC(=O)C1CC1C)C(=O)N1CCCC(N1)C(=O)OCC(C)(C)C2
1.18 µM: IC50 (second compound 0.000949 µM)
inactive: viability, T/C [1] 46.1% | viability, T/C [2] 48.5% | viability, T/C [3] 56.8% | viability, T/C [4] 79% | viability, T/C [7] 25.1% | viability, T/C [8] 26.1% | viability, T/C [9] 27.8% | viability, T/C [10] 36.2% | viability, T/C [11] 4.27% | viability, T/C [13] 9.9% | viability, T/C [14] 11.2%
< 0.0316 µM: IC50 (second compound 0.003 µM) | IC50 (second compound 0.00949 µM) | IC50 (second compound 0.03 µM) | IC50 (second compound 0.0949 µM) | IC50 (second compound 0.3 µM)
active: viability, T/C [5] 3.84% | viability, T/C [6] 4.58% | viability, T/C [12] 4.26% | viability, T/C [15] 12.9% | viability, T/C [16] 11.8% | viability, T/C [17] 3.06% | viability, T/C [18] 3.75% | viability, T/C [19] 5.14% | viability, T/C [20] 6.25% | viability, T/C [21] 7.94% | viability, T/C [22] 6.31% | viability, T/C [23] 3.03% | viability, T/C [24] 3.65% | viability, T/C [25] 4.23% | viability, T/C [26] 3.98% | viability, T/C [27] 3.55% | viability, T/C [28] 2.72% | viability, T/C [29] 2.97% | viability, T/C [30] 3.31% | viability, T/C [31] 2.9% | viability, T/C [32] 2.91% | viability, T/C [33] 3.27% | viability, T/C [34] 2.5% | viability, T/C [35] 4.29% | viability, T/C [36] 3.48%

Cc1nc(N2CCC3(CC2)COC(C)C3N)c(CO)nc1Sc1ccnc(N)c1Cl (stereo not given) + CCn1c(-c2cc(N3CCN(C)CC3)cnc2C(C)OC)c2c3cc(ccc31)-c1csc(n1)CC(NC(=O)C1CC1C)C(=O)N1CCCC(N1)C(=O)OCC(C)(C)C2
< 0.0316 µM: IC50 (second compound 0.000949 µM) | IC50 (second compound 0.003 µM) | IC50 (second compound 0.00949 µM) | IC50 (second compound 0.03 µM) | IC50 (second compound 0.0949 µM) | IC50 (second compound 0.3 µM)
inactive: viability, T/C [1] 35.8% | viability, T/C [2] 20.5% | viability, T/C [3] 9.55% | viability, T/C [7] 15.5% | viability, T/C [8] 11.7% | viability, T/C [13] 10.5%
active: viability, T/C [4] 10.9% | viability, T/C [5] 7.52% | viability, T/C [6] 7.71% | viability, T/C [9] 7.5% | viability, T/C [10] 6.79% | viability, T/C [11] 4.71% | viability, T/C [12] 4.41% | viability, T/C [14] 6.46% | viability, T/C [15] 5.74% | viability, T/C [16] 4.02% | viability, T/C [17] 3.99% | viability, T/C [18] 4.11% | viability, T/C [19] 5.58% | viability, T/C [20] 3.68% | viability, T/C [21] 4.39% | viability, T/C [22] 3.48% | viability, T/C [23] 3.37% | viability, T/C [24] 3.97% | viability, T/C [25] 3.82% | viability, T/C [26] 3.07% | viability, T/C [27] 3.2% | viability, T/C [28] 3.97% | viability, T/C [29] 3.81% | viability, T/C [30] 3.34% | viability, T/C [31] 2.66% | viability, T/C [32] 3.52% | viability, T/C [33] 3.88% | viability, T/C [34] 3.34% | viability, T/C [35] 4.46% | viability, T/C [36] 2.74%

NC1c2ccccc2OC12CCN(c1cnc3c(N4CCCc5ncccc54)n[nH]c3n1)CC2 (stereo not given) + CCn1c(-c2cc(N3CCN(C)CC3)cnc2C(C)OC)c2c3cc(ccc31)-c1csc(n1)CC(NC(=O)C1CC1C)C(=O)N1CCCC(N1)C(=O)OCC(C)(C)C2
active: viability, T/C [3] 7.58% | viability, T/C [4] 9.76% | viability, T/C [5] 9.06% | viability, T/C [6] 7.7% | viability, T/C [7] 9.27% | viability, T/C [8] 8.67% | viability, T/C [9] 6.53% | viability, T/C [10] 6.35% | viability, T/C [11] 4.86% | viability, T/C [12] 5.29% | viability, T/C [13] 7.91% | viability, T/C [14] 5.02% | viability, T/C [15] 5.89% | viability, T/C [16] 4.63% | viability, T/C [17] 5.75% | viability, T/C [18] 4.91% | viability, T/C [19] 5.17% | viability, T/C [20] 4.43% | viability, T/C [21] 5.11% | viability, T/C [22] 5.46% | viability, T/C [23] 3.67% | viability, T/C [24] 5.21% | viability, T/C [25] 3.52% | viability, T/C [26] 4.51% | viability, T/C [27] 4.52% | viability, T/C [28] 3.8% | viability, T/C [29] 3.7% | viability, T/C [30] 4.75% | viability, T/C [31] 4.69% | viability, T/C [32] 4.26% | viability, T/C [33] 4.59% | viability, T/C [34] 3.96% | viability, T/C [35] 4.65% | viability, T/C [36] 4.77%
inactive: viability, T/C [1] 17.9% | viability, T/C [2] 13.2%
< 0.0316 µM: IC50 (second compound 0.000949 µM) | IC50 (second compound 0.003 µM) | IC50 (second compound 0.00949 µM) | IC50 (second compound 0.03 µM) | IC50 (second compound 0.0949 µM) | IC50 (second compound 0.3 µM)

Nc1ccn(C2OC(CO)C(O)C2(F)F)c(=O)n1 (stereo not given) + CCn1c(-c2cc(N3CCN(C)CC3)cnc2C(C)OC)c2c3cc(ccc31)-c1csc(n1)CC(NC(=O)C1CC1C)C(=O)N1CCCC(N1)C(=O)OCC(C)(C)C2
inactive: viability, T/C (second compound 0.000949 µM, first compound 0.00316 µM) 47% | viability, T/C (second compound 0.000949 µM, first compound 0.01 µM) 45.2% | viability, T/C [1] 34% | viability, T/C [2] 26.3% | viability, T/C [3] 21.8% | viability, T/C [4] 16.3% | viability, T/C (second compound 0.003 µM, first compound 0.00316 µM) 24.2% | viability, T/C (second compound 0.003 µM, first compound 0.01 µM) 19.4% | viability, T/C [7] 18.2% | viability, T/C [8] 19.3% | viability, T/C [9] 15.4% | viability, T/C [10] 11.8% | viability, T/C (second compound 0.00949 µM, first compound 0.00316 µM) 11.9% | viability, T/C (second compound 0.00949 µM, first compound 0.01 µM) 8.79% | viability, T/C [13] 10.1% | viability, T/C [14] 13.8% | viability, T/C [15] 9.53% | viability, T/C [16] 9.18%
< 0.00316 µM: IC50 (second compound 0.000949 µM) | IC50 (second compound 0.003 µM) | IC50 (second compound 0.00949 µM) | IC50 (second compound 0.03 µM) | IC50 (second compound 0.0949 µM) | IC50 (second compound 0.3 µM)
active: viability, T/C (second compound 0.03 µM, first compound 0.00316 µM) 6.18% | viability, T/C (second compound 0.03 µM, first compound 0.01 µM) 6.2% | viability, T/C [19] 6.46% | viability, T/C [20] 5.05% | viability, T/C [21] 3.47% | viability, T/C [22] 4.42% | viability, T/C (second compound 0.0949 µM, first compound 0.00316 µM) 4.43% | viability, T/C (second compound 0.0949 µM, first compound 0.01 µM) 4.18% | viability, T/C [25] 4.08% | viability, T/C [26] 3.58% | viability, T/C [27] 2.79% | viability, T/C [28] 2.41% | viability, T/C (second compound 0.3 µM, first compound 0.00316 µM) 3.51% | viability, T/C (second compound 0.3 µM, first compound 0.01 µM) 3.18% | viability, T/C [31] 3.3% | viability, T/C [32] 2.52% | viability, T/C [33] 3.52% | viability, T/C [34] 2.26%
